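The compound was tested at five concentrations on cells cultured in 96-well plates, with a 48-hour exposure period. Here, GI50 denotes the concentration required for 50% inhibition of growth.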 Calls of active or inactive are those of the source. Cut-off read from the data, not from the text of the source: active = GI50 up to about 1.1 µM and inactive = higher.
What was measured:
Assay in all cases: DTP human tumour cell line panel, 48 h
K562 = test system: K562
KM12 = test system: KM12
SK-MEL-28 = test system: SK-MEL-28
NCI/ADR-RES = test system: NCI/ADR-RES
MOLT-4 = test system: MOLT-4
SW-620 = test system: SW-620
MDA-MB-435 = test system: MDA-MB-435
HCC 2998 = test system: HCC 2998
TK-10 = test system: TK-10
NCI-H23 = test system: NCI-H23
SNB-75 = test system: SNB-75
SNB-19 = test system: SNB-19
NCI-H460 = test system: NCI-H460
PC-3 = test system: PC-3
OVCAR-5 = test system: OVCAR-5
MCF7 = test system: MCF7
786-0 = test system: 786-0
MDA-N = test system: MDA-N
M14 = test system: M14
UACC-257 = test system: UACC-257
UACC-62 = test system: UACC-62
NCI-H226 = test system: NCI-H226
SR = test system: SR
HOP-62 = test system: HOP-62
HCT-15 = test system: HCT-15
UO-31 = test system: UO-31
LOX IMVI = test system: LOX IMVI
HL-60 = test system: HL-60
Hs-578T = test system: Hs-578T
ACHN = test system: ACHN
HOP-92 = test system: HOP-92
RXF 393 = test system: RXF 393
OVCAR-8 = test system: OVCAR-8
A498 = test system: A498
SF-295 = test system: SF-295
RPMI-8226 = test system: RPMI-8226
DU-145 = test system: DU-145
NCI-H522 = test system: NCI-H522
COLO 205 = test system: COLO 205
OVCAR-4 = test system: OVCAR-4
OVCAR-3 = test system: OVCAR-3
HT-29 = test system: HT-29
BT-549 = test system: BT-549
SN12C = test system: SN12C
HCT-116 = test system: HCT-116
SK-MEL-5 = test system: SK-MEL-5
SK-MEL-2 = test system: SK-MEL-2
CCRF-CEM = test system: CCRF-CEM
SF-539 = test system: SF-539
SF-268 = test system: SF-268
IGROV-1 = test system: IGROV-1
MDA-MB-231 = test system: MDA-MB-231
CAKI-1 = test system: CAKI-1
U-251 = test system: U-251
EKVX = test system: EKVX
A549 = test system: A549
Malme-3M = test system: Malme-3M
SK-OV-3 = test system: SK-OV-3

Nc1ccc(Oc2ccc(C3(c4ccc(Oc5ccc(N)cc5)cc4)C4CC5CC(C4)CC3C5)cc2)cc1
GI50 (K562): 3.89 µM (inactive)
GI50 (KM12): 3.77 µM (inactive)
GI50 (SK-MEL-28): 16.5 µM (inactive)
GI50 (NCI/ADR-RES): 15.8 µM (inactive)
GI50 (MOLT-4): 4.27 µM (inactive)
GI50 (SW-620): 4.26 µM (inactive)
GI50 (MDA-MB-435): 8.05 µM (inactive)
GI50 (HCC 2998): 0.322 µM (active)
GI50 (TK-10): 22.8 µM (inactive)
GI50 (NCI-H23): 13.8 µM (inactive)
GI50 (SNB-75): 54 µM (inactive)
GI50 (SNB-19): 21.4 µM (inactive)
GI50 (NCI-H460): 2.42 µM (inactive)
GI50 (PC-3): 5.7 µM (inactive)
GI50 (OVCAR-5): 19.9 µM (inactive)
GI50 (MCF7): 3.55 µM (inactive)
GI50 (786-0): 4.57 µM (inactive)
GI50 (MDA-N): 6.32 µM (inactive)
GI50 (M14): 3.2 µM (inactive)
GI50 (UACC-257): 6.67 µM (inactive)
GI50 (UACC-62): 17.3 µM (inactive)
GI50 (NCI-H226): 19.9 µM (inactive)
GI50 (SR): 3.42 µM (inactive)
GI50 (HOP-62): 11.8 µM (inactive)
GI50 (HCT-15): 4.94 µM
GI50 (UO-31): 3.01 µM (inactive)
GI50 (LOX IMVI): 7.31 µM (inactive)
GI50 (HL-60): 5 µM (inactive)
GI50 (Hs-578T): > 22.1 µM (inactive)
GI50 (ACHN): 7.8 µM (inactive)
GI50 (HOP-92): 11.5 µM (inactive)
GI50 (RXF 393): 6.3 µM (inactive)
GI50 (OVCAR-8): 9.18 µM (inactive)
GI50 (A498): 2.91 µM (inactive)
GI50 (SF-295): 6.76 µM (inactive)
GI50 (RPMI-8226): 3 µM (inactive)
GI50 (DU-145): 6.64 µM (inactive)
GI50 (NCI-H522): 11 µM (inactive)
GI50 (COLO 205): 3.72 µM (inactive)
GI50 (OVCAR-4): 8.71 µM (inactive)
GI50 (OVCAR-3): 0.353 µM (active)
GI50 (HT-29): 0.489 µM (active)
GI50 (BT-549): 11.6 µM (inactive)
GI50 (SN12C): 6.28 µM (inactive)
GI50 (HCT-116): 0.782 µM (active)
GI50 (SK-MEL-5): 14.4 µM (inactive)
GI50 (SK-MEL-2): 23 µM (inactive)
GI50 (CCRF-CEM): 3.03 µM (inactive)
GI50 (SF-539): 10.9 µM (inactive)
GI50 (SF-268): 20.3 µM (inactive)
GI50 (IGROV-1): 12.8 µM (inactive)
GI50 (MDA-MB-231): 17 µM (inactive)
GI50 (CAKI-1): 15.8 µM (inactive)
GI50 (U-251): 0.231 µM (active)
GI50 (EKVX): 9.53 µM (inactive)
GI50 (A549): 6.08 µM (inactive)
GI50 (Malme-3M): 23.7 µM (inactive)

COc1cc([C@@H]2c3cc4c(cc3C[C@@H]3COC(=O)C32)OCO4)cc(OC)c1O (stereo not given in full)
GI50 (K562): 0.031 µM (active)
GI50 (KM12): 0.0277 µM (active)
GI50 (NCI/ADR-RES): 0.0187 µM (active)
GI50 (MOLT-4): 0.0271 µM (active)
GI50 (SW-620): 0.0306 µM (active)
GI50 (MDA-MB-435): < 0.01 µM (active)
GI50 (TK-10): 0.039 µM (active)
GI50 (NCI-H23): 0.21 µM (active)
GI50 (NCI-H460): 0.032 µM (active)
GI50 (PC-3): 0.0234 µM (active)
GI50 (MCF7): 0.017 µM (active)
GI50 (786-0): 0.0299 µM (active)
GI50 (MDA-N): 0.0113 µM (active)
GI50 (M14): 0.0344 µM (active)
GI50 (UACC-257): 87.7 µM (inactive)
GI50 (UACC-62): 0.0263 µM (active)
GI50 (NCI-H226): 1.39 µM (inactive)
GI50 (SR): 0.011 µM (active)
GI50 (HOP-62): 0.03 µM (active)
GI50 (HCT-15): 0.0294 µM
GI50 (UO-31): 0.0562 µM (active)
GI50 (LOX IMVI): 0.0426 µM (active)
GI50 (HL-60): 0.0274 µM (active)
GI50 (ACHN): 0.03 µM (active)
GI50 (HOP-92): 0.0957 µM (active)
GI50 (RXF 393): 0.0165 µM (active)
GI50 (A498): 0.211 µM (active)
GI50 (SF-295): 0.0208 µM (active)
GI50 (RPMI-8226): 0.0269 µM (active)
GI50 (DU-145): 0.0973 µM (active)
GI50 (NCI-H522): 0.0119 µM (active)
GI50 (COLO 205): 0.0306 µM (active)
GI50 (OVCAR-3): 0.0188 µM (active)
GI50 (HT-29): 0.034 µM (active)
GI50 (BT-549): 0.038 µM (active)
GI50 (SN12C): 0.143 µM (active)
GI50 (HCT-116): 0.0297 µM (active)
GI50 (SK-MEL-5): 0.0221 µM (active)
GI50 (CCRF-CEM): 0.0228 µM (active)
GI50 (SF-539): 0.0188 µM (active)
GI50 (SF-268): 0.0429 µM (active)
GI50 (IGROV-1): 0.0254 µM (active)
GI50 (CAKI-1): 0.0183 µM (active)
GI50 (U-251): 0.0432 µM (active)
GI50 (EKVX): 0.0284 µM (active)
GI50 (A549): 0.0668 µM (active)
GI50 (SK-OV-3): 0.0287 µM (active)
GI50 (Malme-3M): 0.0121 µM (active)
